Where two headings read alike, the source gives them in different places.
Molecular target: human mOR (Homo sapiens (Human), UniProt P35372)
Test: cell-based
[1] = CHO Tag-lite human mOR stable cell line, forskolin 4 μM and DAMGO at EC90, read-out: mOR cAMP Antagonist Assay IC50

Chain of human mOR (P35372 whole entry): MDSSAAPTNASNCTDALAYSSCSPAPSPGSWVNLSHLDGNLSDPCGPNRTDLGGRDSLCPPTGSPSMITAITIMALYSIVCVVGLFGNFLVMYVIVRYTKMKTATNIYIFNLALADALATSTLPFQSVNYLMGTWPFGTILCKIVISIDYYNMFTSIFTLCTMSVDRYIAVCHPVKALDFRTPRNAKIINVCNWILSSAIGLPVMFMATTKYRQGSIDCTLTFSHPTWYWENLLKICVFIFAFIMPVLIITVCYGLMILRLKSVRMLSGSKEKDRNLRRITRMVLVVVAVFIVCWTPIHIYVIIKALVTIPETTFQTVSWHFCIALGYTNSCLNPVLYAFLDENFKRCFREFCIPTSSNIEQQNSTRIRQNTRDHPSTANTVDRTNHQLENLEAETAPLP

Compound | IC50 [nM] | other results
CNC(=O)c1ccc(C[C@@H](CNC(=O)CC(c2ncc(Cl)cn2)C2(C(F)(F)F)CC2)N(C)C)c(Cl)c1F (stereo partly drawn) [Compound 112, 3-chloro-4-((2S)-3-(3-(5-chloropyrimidin-2-yl)-3-(1-(trifluoromethyl)cyclopropyl)propanamido)-2-(dimethylamino)propyl)-2-fluoro-N-methylbenzamide] | > 3000 | –
CNC(=O)c1ccc(C[C@@H](CNC(=O)C[C@H](c2ccc(C)nc2)C2(C(F)(F)F)CC2)N(C)C)c(C)c1F [Compound 125, 4-((S)-2-(dimethylamino)-3-((R)-3-(6-methylpyridin-3-yl)-3-(1-(trifluoromethyl)cyclopropyl)propanamido)propyl)-2-fluoro-N,3-dimethylbenzamide] | < 300 | –
CNC(=O)c1ccc(C[C@@H](CNC(=O)C[C@H](c2cnc(C)nc2)C2(C(F)(F)F)CC2)N(C)C)c(C)c1 [Compound 135, 4-((S)-2-(dimethylamino)-3-((R)-3-(2-methylpyrimidin-5-yl)-3-(1-(trifluoromethyl)cyclopropyl)propanamido)propyl)-N,3-dimethylbenzamide] | – | IC50 (read-out: mOR cAMP Antagonist Assay IC50): > 3000 nM
CNC(=O)c1ccc(C[C@@H](CNC(=O)C[C@@H](c2cncc(F)c2)C(C)(C)C)N(C)C)cc1F [Compound 151, 4-((S)-2-(dimethylamino)-3-((R)-3-(5-fluoropyridin-3-yl)-4,4-dimethylpentanamido)propyl)-2-fluoro-N-methylbenzamide] | 300 to 3000 | –
CN(C)[C@H](CNC(=O)C[C@@H](c1ccccc1)C1(C(F)(F)F)CC1)Cc1ccc2[nH]ncc2c1 [Compound 190, (S)-N-((S)-2-(dimethylamino)-3-(1H-indazol-5-yl)propyl)-3-phenyl-3-(1-(trifluoromethyl)cyclopropyl)propanamide] | – | IC50 [1]: 300 to 3000 nM
CNC(=O)c1ccc(C[C@@H](CNC(=O)CC(c2cncc(OC)c2)C2(C(F)(F)F)CC2)N(C)C)c(Cl)c1 (stereo partly drawn) [Compound 117, 3-chloro-4-((2S)-2-(dimethylamino)-3-(3-(5-methoxypyridin-3-yl)-3-(1-(trifluoromethyl)cyclopropyl)propanamido)propyl)-N-methylbenzamide] | > 3000 | –
CNC(=O)c1cc(F)c(C[C@@H](CNC(=O)C[C@H](c2cnc(C)nc2)C2(C(F)(F)F)CC2)N(C)C)c(F)c1 [Compound 105, 4-((S)-2-(dimethylamino)-3-((R)-3-(2-methylpyrimidin-5-yl)-3-(1-(trifluoromethyl)cyclopropyl)propanamido)propyl)-3,5-difluoro-N-methylbenzamide] | 300 to 3000 | –
Cc1ncc([C@@H](CC(=O)NC[C@H](Cc2ccc(C(N)=O)c(F)c2F)N(C)C)C2(C(F)(F)F)CC2)s1 [Compound 1, 4-((S)-2-(dimethylamino)-3-((S)-3-(2-methylthiazol-5-yl)-3-(1-(trifluoromethyl)cyclopropyl)propanamido)propyl)-2,3-difluorobenzamide] | < 300 | –
CN(C)[C@H](CNC(=O)C[C@H](CC1CC1)c1ccncc1)Cc1ccc(O)cc1Cl [Compound 260, (S)-N-((S)-3-(2-chloro-4-hydroxyphenyl)-2-(dimethylamino)propyl)-4-cyclopropyl-3-(pyridin-4-yl)butanamide] | < 300 | –
CNC(=O)c1ccc(C[C@@H](CNC(=O)CC(c2ccc(Cl)cn2)C2(C(F)(F)F)CC2)N(C)C)c(Cl)c1 (stereo partly drawn) [Compound 122, 3-chloro-4-((2S)-3-(3-(5-chloropyridin-2-yl)-3-(1-(trifluoromethyl)cyclopropyl)propanamido)-2-(dimethylamino)propyl)-N-methylbenzamide] | < 300 | –
Cc1cc(O)cc(C)c1C[C@@H](CNC(=O)C[C@H](c1cccnc1)C1(C(F)(F)F)CC1)N(C)C [Compound 242, (R)-N-((S)-2-(dimethylamino)-3-(4-hydroxy-2,6-dimethylphenyl)propyl)-3-(pyridin-3-yl)-3-(1-(trifluoromethyl)cyclopropyl)propanamide] | < 300 | –
CNC(=O)c1ccc(C[C@@H](CNC(=O)C[C@@H](c2ccncc2)C2(C(F)(F)F)CC2)N(C)C)c(Cl)c1F [Compound 110, 3-chloro-4-((S)-2-(dimethylamino)-3-((S)-3-(pyridin-4-yl)-3-(1-(trifluoromethyl)cyclopropyl)propanamido)propyl)-2-fluoro-N-methylbenzamide] | – | IC50 [1]: > 3000 nM
CNC(=O)c1ccc(C[C@@H](CNC(=O)CC(c2cncc(F)c2)C2(C(F)(F)F)CC2)N(C)C)c(Cl)c1 (stereo partly drawn) [Compound 116] | < 300 | –
CN(C)[C@H](CNC(=O)C[C@H](c1cccnc1)C1(C(F)(F)F)CC1)Cc1ccc2[nH]ncc2c1Cl [Compound 192, (R)-N-((S)-3-(4-chloro-1H-indazol-5-yl)-2-(dimethylamino)propyl)-3-(pyridin-3-yl)-3-(1-(trifluoromethyl)cyclopropyl)propanamide] | < 300 | –
CN(C)[C@H](CNC(=O)C[C@@H](CC1CC1)c1cccnc1)Cc1ccc(O)cc1 [Compound 310, (R)-4-cyclopropyl-N-((S)-2-(dimethylamino)-3-(4-hydroxyphenyl)propyl)-3-(pyridin-3-yl)butanamide] | < 300 | –
CN(C)[C@H](CNC(=O)C[C@H](c1cccnc1)C1(C(F)(F)F)CC1)Cc1cc2cn[nH]c2cc1Cl [Compound 235, (R)-N-((S)-3-(6-chloro-1H-indazol-5-yl)-2-(dimethylamino)propyl)-3-(pyridin-3-yl)-3-(1-(trifluoromethyl)cyclopropyl)propanamide] | < 300 | –
CN(C)[C@H](CNC(=O)C[C@H](c1ccccc1)C1(C(F)(F)F)CC1)Cc1ccc2c(c1)CC(=O)N2 [Compound 189, (R)-N-((S)-2-(dimethylamino)-3-(2-oxoindolin-5-yl)propyl)-3-phenyl-3-(1-(trifluoromethyl)cyclopropyl)propanamide] | < 300 | –
CN(C)[C@H](CNC(=O)C[C@@H](c1cccnc1)C1(C(F)(F)F)CC1)Cc1ccc2[nH]ncc2c1 [Compound 237, (S)-N-((S)-2-(dimethylamino)-3-(1H-indazol-5-yl)propyl)-3-(pyridin-3-yl)-3-(1-(trifluoromethyl)cyclopropyl)propanamide] | – | IC50 [1]: < 300 nM
CNC(=O)c1ccc(C[C@@H](CNC(=O)C[C@@H](CC(C)C)c2cccnc2)N(C)C)c(C)c1 [Compound 126, 4-((S)-2-(dimethylamino)-3-((R)-5-methyl-3-(pyridin-3-yl)hexanamido)propyl)-N,3-dimethylbenzamide] | > 3000 | –
CNC(=O)c1ccc(C[C@@H](CNC(=O)C[C@H](c2cccnc2)C2(C(F)(F)F)CC2)N(C)C)c(C)c1 [Compound 131, 4-((S)-2-(dimethylamino)-3-((R)-3-(pyridin-3-yl)-3-(1-(trifluoromethyl)cyclopropyl)propanamido)propyl)-N,3-dimethylbenzamide] | < 300 | –
Cc1ncc([C@@H](CC(=O)NC[C@H](Cc2cc3cn[nH]c3cc2Cl)N(C)C)C2(C(F)(F)F)CC2)cn1 [Compound 233, (R)-N-((S)-3-(6-chloro-H-indazol-5-yl)-2-(dimethylamino)propyl)-3-(2-methylpyrimidin-5-yl)-3-(1-(trifluoromethyl)cyclopropyl) propanamide] | – | IC50 [1]: < 300 nM
Cc1cc(O)ccc1C[C@@H](CNC(=O)CC(c1ncc(Cl)cn1)C1(C(F)(F)F)CC1)N(C)C (stereo partly drawn) [Compound 274, 3-(5-chloropyridmidin-2-yl)-N-((S)-2-(dimethylamino)-3-(4-hydroxy-2-methylphenyl)propyl)-3-(1-(trifluoromethyl)cyclopropyl) propanamide] | < 300 | –
CN(C)[C@H](CNC(=O)C[C@H](c1cccnc1)C1(C(F)(F)F)CC1)Cc1ccc2[nH]ncc2c1 [Compound 213, (R)-N-((S)-2-(dimethylamino)-3-(1H-indazol-5-yl)propyl)-3-(pyridin-3-yl)-3-(1-(trifluoromethyl)cyclopropyl)propanamide] | < 300 | –
Cc1cc(O)ccc1C[C@@H](CNC(=O)CC(c1ncccn1)C1(C(F)(F)F)CC1)N(C)C (stereo partly drawn) [Compound 271, N-((S)-2-(dimethylamino)-3-(4-hydroxy-2-methylphenyl)propyl)-3-(pyrimidin-2-yl)-3-(1-(trifluoromethyl)cyclopropyl)propanamide] | < 300 | –
Cc1ccc([C@@H](CC(=O)NC[C@H](Cc2ccc(C(N)=O)c(F)c2F)N(C)C)C2(C(F)(F)F)CC2)cn1 [Compound 4, 4-((S)-2-(dimethylamino)-3-((R)-3-(6-methylpyridin-3-yl)-3-(1-(trifluoromethyl)cyclopropyl)propanamido)propyl)-2,3-difluorobenzamide] | < 300 | –
CN(C)[C@H](CNC(=O)CC(c1ccc(C(F)(F)F)nc1)C1(C(F)(F)F)CC1)Cc1ccc(O)cc1 (stereo partly drawn) [Compound 314, N-((S)-2-(dimethylamino)-3-(4-hydroxyphenyl)propyl)-3-(1-(trifluoromethyl)cyclopropyl)-3-(6-(trifluoromethyl)pyridin-3-yl)propanamide] | < 300 | –
Cc1ccc([C@@H](CC(=O)NC[C@H](Cc2ccc(O)cc2)N(C)C)C2(C(F)(F)F)CC2)s1 [Compound 293, (S)-N-((S)-2-(dimethylamino)-3-(4-hydroxyphenyl)propyl)-3-(5-methylthiophen-2-yl)-3-(1-(trifluoromethyl)cyclopropyl)propanamide] | < 300 | –
CN(C)[C@H](CNC(=O)C[C@H](c1ccncc1)C1CC1)Cc1ccc(O)c(F)c1Cl [Compound 258, (S)-N-((S)-3-(2-chloro-3-fluoro-4-hydroxyphenyl)-2-(dimethylamino)propyl)-3-cyclopropyl-3-(pyridin-4-yl)propanamide] | < 300 | –
Cc1cc(O)ccc1C[C@@H](CNC(=O)C[C@H](c1cncs1)C1(C(F)(F)F)CC1)N(C)C [Compound 268, (S)-N-((S)-2-(dimethylamino)-3-(4-hydroxy-2-methylphenyl)propyl)-3-(thiazol-5-yl)-3-(1-(trifluoromethyl)cyclopropyl)propanamide] | < 300 | –
CN(C)[C@H](CNC(=O)C[C@H](c1ccncc1)C1(C(F)(F)F)CC1)Cc1ccc(O)c(Cl)c1 [Compound 278, (R)-N-((S)-3-(3-chloro-4-hydroxyphenyl)-2-(dimethylamino)propyl)-3-(pyridin-4-yl)-3-(1-(trifluoromethyl)cyclopropyl)propanamide] | < 300 | –
